Measured values reported in ChEMBL document CHEMBL2073750, “Differential interaction of 3-hydroxy-3-methylglutaryl-coa reductase inhibitors with ABCB1, ABCC2, and OATP1B1” (Drug Metab Dispos, 2005).

Tests used:
Type in all cases: functional, cell-based
[1] = biological target: T1, Solute carrier organic anion transporter family member 1B1 (Homo sapiens, UniProt Q9Y6L6); experiment: TP_TRANSPORTER: inhibition of estradiol-17beta-glucuronide uptake(estradiol-17beta-glucuronide:0.02uM) in OATP1B1-expressing HEK293 cells
T1 sequence (Q9Y6L6 whole entry): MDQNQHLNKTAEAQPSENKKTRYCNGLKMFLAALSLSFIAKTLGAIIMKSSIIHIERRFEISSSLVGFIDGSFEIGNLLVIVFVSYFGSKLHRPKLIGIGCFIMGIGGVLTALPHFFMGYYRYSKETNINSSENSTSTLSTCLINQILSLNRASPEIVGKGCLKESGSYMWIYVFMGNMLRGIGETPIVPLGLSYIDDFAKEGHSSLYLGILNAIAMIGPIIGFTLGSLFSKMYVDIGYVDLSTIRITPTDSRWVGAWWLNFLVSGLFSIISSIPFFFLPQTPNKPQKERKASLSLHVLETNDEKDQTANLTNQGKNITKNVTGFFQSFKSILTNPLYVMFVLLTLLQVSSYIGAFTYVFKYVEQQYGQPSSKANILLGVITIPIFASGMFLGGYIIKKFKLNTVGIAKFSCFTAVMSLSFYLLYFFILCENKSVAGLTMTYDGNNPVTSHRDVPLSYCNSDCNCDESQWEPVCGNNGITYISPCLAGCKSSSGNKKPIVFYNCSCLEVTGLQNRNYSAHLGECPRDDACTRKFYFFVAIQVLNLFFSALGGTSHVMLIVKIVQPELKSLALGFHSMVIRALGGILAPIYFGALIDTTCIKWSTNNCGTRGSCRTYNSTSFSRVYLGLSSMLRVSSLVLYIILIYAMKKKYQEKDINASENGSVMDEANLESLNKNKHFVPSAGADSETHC

[2] = biological target: ATP-binding cassette sub-family C member 2 (Homo sapiens, UniProt Q92887); experiment: TP_TRANSPORTER: inhibition of calcein-AM efflux in MRP2-expressing MDCK cells
[3] = biological target: ATP-dependent translocase ABCB1 (Homo sapiens, UniProt P08183); experiment: TP_TRANSPORTER: inhibition of calcein-AM efflux in MDR1-expressing MDCK cells
ATP-dependent translocase ABCB1, sequence (P08183 whole entry): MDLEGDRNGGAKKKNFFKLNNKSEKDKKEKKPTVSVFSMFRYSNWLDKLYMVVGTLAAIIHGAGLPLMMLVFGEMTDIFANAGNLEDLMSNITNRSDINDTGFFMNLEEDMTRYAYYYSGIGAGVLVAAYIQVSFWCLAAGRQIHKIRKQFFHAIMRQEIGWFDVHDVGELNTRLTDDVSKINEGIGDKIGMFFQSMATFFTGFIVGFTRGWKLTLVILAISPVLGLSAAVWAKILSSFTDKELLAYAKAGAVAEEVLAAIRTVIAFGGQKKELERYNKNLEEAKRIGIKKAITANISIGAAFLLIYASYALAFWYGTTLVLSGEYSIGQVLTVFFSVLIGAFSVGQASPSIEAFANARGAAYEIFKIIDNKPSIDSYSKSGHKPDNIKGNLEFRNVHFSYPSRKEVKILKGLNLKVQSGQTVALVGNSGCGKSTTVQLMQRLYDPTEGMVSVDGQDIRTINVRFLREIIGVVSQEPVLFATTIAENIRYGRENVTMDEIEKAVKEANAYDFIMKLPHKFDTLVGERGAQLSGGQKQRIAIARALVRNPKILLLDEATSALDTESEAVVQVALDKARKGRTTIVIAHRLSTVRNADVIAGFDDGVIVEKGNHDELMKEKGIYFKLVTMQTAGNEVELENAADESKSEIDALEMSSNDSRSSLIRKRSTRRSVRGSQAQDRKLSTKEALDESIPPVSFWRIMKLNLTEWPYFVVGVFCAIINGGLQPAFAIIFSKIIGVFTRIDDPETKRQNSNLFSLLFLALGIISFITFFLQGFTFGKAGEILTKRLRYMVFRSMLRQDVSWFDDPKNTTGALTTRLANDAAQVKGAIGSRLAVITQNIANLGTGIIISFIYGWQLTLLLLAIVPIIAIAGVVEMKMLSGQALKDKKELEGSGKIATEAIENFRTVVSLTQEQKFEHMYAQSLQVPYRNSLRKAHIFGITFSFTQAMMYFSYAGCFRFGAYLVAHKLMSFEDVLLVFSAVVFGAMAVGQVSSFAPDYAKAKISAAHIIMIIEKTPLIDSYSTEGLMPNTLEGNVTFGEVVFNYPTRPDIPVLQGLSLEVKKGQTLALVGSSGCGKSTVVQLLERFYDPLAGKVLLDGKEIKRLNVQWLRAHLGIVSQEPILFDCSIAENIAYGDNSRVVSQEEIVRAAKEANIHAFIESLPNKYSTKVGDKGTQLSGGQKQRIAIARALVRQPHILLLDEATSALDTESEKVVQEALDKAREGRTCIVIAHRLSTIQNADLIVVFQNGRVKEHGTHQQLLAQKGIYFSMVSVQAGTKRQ

ATP-binding cassette sub-family C member 2, sequence (Q92887 whole entry): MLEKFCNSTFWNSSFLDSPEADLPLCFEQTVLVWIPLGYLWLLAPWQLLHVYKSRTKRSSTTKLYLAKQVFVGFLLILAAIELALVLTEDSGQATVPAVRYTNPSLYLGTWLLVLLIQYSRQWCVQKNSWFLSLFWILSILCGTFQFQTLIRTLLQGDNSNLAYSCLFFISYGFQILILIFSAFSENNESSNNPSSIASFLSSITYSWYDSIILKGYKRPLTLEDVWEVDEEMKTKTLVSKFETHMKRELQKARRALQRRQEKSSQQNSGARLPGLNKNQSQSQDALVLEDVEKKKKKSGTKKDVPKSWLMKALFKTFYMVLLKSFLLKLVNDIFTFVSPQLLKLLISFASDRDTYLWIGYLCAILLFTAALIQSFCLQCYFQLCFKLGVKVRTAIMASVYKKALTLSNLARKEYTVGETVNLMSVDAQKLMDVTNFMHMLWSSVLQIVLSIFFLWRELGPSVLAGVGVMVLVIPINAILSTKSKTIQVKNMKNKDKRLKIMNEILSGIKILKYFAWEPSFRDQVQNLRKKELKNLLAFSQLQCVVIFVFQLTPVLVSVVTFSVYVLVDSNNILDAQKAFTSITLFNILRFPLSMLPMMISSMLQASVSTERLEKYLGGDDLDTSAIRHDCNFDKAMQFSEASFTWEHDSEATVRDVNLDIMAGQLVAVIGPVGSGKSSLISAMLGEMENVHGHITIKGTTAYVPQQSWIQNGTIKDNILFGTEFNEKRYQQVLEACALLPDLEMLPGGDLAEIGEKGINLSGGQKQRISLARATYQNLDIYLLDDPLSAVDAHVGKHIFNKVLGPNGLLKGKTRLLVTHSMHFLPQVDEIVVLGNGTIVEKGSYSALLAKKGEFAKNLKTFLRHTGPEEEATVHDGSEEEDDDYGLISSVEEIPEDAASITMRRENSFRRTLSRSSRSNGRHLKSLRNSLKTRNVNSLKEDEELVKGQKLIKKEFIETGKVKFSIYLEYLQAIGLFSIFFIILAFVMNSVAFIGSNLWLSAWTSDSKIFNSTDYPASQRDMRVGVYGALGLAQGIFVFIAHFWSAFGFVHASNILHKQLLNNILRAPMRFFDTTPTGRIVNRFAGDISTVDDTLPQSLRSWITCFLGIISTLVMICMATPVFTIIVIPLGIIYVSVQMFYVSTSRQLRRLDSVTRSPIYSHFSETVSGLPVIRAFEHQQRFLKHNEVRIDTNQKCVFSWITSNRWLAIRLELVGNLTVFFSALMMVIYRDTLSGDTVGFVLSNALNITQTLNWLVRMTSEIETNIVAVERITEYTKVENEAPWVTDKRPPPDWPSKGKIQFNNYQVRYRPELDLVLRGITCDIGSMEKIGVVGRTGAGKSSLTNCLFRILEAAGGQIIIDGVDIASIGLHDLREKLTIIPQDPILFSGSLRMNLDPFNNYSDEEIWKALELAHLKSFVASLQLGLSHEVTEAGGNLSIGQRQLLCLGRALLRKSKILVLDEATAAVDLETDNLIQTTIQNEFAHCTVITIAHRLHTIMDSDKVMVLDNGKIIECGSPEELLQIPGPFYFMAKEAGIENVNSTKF

SMILES | IC50 ([1]; read-out: IC50) [µM] | IC50 ([2]; mdck) | IC50 ([3]; mdck) | IC50 ([2]; read-out: IC50) [µM] | IC50 ([1]; hek293) | IC50 ([3]; read-out: IC50) [µM]
CCC(C)(C)C(=O)O[C@H]1C[C@@H](C)C=C2C=C[C@H](C)[C@H](CC[C@@H](O)C[C@@H](O)CC(=O)O)[C@H]21 [TENIVASTATIN] | 3.6 | is not an inhibitor [IC50=-(>100uM)] | is not an inhibitor [IC50=-(>100uM)] | – | – | –
CC[C@]1(O)C[C@@H]2CN(CCc3c([nH]c4ccccc34)[C@@](C(=O)OC)(c3cc4c(cc3OC)N(C)[C@H]3[C@@](O)(C(=O)OC)[C@H](OC(C)=O)[C@]5(CC)C=CCN6CC[C@]43[C@@H]65)C2)C1 [VINBLASTINE] | – | – | – | 21 | – | –
CC[C@H](C)C(=O)O[C@H]1C[C@@H](C)C=C2C=C[C@H](C)[C@H](CC[C@@H]3C[C@@H](O)CC(=O)O3)[C@H]21 [LOVASTATIN] | 28 | is not an inhibitor [IC50=-(>33uM)] | – | – | – | –
CC[C@H](C)C(=O)O[C@H]1C[C@H](O)C=C2C=C[C@H](C)[C@H](CC[C@@H](O)C[C@@H](O)CC(=O)O)[C@H]21 [PRAVASTATIN] | – | is not an inhibitor [IC50=-(>100uM)] | is not an inhibitor [IC50=-(>100uM)] | – | is not an inhibitor [IC50=-(>100uM)] | –
CC(C)c1c(C(=O)Nc2ccccc2)c(-c2ccccc2)c(-c2ccc(F)cc2)n1CC[C@@H](O)C[C@@H](O)CC(=O)O [ATORVASTATIN] | – | is not an inhibitor [IC50=-(>100uM)] | is not an inhibitor [IC50=-(>100uM)] | – | – | –
CC(C)c1c(C(=O)Nc2ccccc2)c(-c2ccccc2)c(-c2ccc(F)cc2)n1CC[C@@H]1C[C@@H](O)CC(=O)O1 [ATORVASTATIN LACTONE] | 2.6 | – | – | 15 | – | 14
CC[C@H](C)C(=O)O[C@H]1C[C@@H](C)C=C2C=C[C@H](C)[C@H](CC[C@@H](O)C[C@@H](O)CC(=O)O)[C@H]21 [LOVASTATIN ACID] | 4 | is not an inhibitor [IC50=-(>100uM)] | is not an inhibitor [IC50=-(>100uM)] | – | – | –
CO[C@H]1/C=C/O[C@@]2(C)Oc3c(C)c(O)c4c(O)c(cc(O)c4c3C2=O)NC(=O)/C(C)=C\C=C\[C@H](C)[C@H](O)[C@@H](C)[C@@H](O)[C@@H](C)[C@H](OC(C)=O)[C@@H]1C [RIFAMYCIN] | 0.23 | – | – | – | – | –
